# Results reported in US9951065B2 (Gilead Sciences, Inc., priority 2015, dated 2018).
# Target: T1, IDO1 (Homo sapiens, UniProt P14902)
# T1 construct: HeLa cells were treated with a test compound in the presence of IFNγ, which induces IDO1 expression; host or cells: H1-HeLa cells, IDO1 induced with IFNγ
# Experiment: Cell-based (HeLa) assay for measurement of IDO1 inhibition (kynurenine levels in supernatant after IFNγ induction)
# Settings: HeLa cells, geometric mean of a minimum of four determinations
# Summary of the method: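 IDO1 activity is read as kynurenine released into the medium, detected with Ehrlich's reagent (p-dimethylaminobenzaldehyde) at 480 nm after TCA treatment. HeLa cells were exposed 48 h to compounds in 0.5% DMSO alongside IFNγ induction. Values normalized to no-IFNγ and IFNγ controls; four-parameter EC50 given as geometric mean of ≥4 determinations.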
# [1] = IFNγ-induced IDO1, kynurenine in supernatant after 48 hour incubation
# [2] = IFNγ-induced IDO1, kynurenine in supernatant, 48 hour incubation
# T1 sequence (P14902 whole entry): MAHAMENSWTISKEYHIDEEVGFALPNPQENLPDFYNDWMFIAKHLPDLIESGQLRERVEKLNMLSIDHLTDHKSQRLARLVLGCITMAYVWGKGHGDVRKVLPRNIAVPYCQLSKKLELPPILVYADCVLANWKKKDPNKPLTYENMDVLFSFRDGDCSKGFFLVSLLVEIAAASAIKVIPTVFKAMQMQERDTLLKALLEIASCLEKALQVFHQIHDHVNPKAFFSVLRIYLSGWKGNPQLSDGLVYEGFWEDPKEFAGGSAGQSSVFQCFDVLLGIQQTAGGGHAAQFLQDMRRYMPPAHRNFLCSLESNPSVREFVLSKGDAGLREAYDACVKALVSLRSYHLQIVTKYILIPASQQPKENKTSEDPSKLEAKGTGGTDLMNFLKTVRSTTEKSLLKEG
EC50 [1] [µM],EC50 [2] [µM],Structure (SMILES)
0.445,–,"CC#Cc1cc(N/C(=N\O)c2ccnc3nc[nH]c23)ccc1F [Example 84, N-(4-Fluoro-3-(prop-1-yn-1-yl)phenyl)-N′-hydroxy-1H-imidazo[4,5-b]pyridine-7-carboximidamide]"
–,3.96,"CN(C)C(=O)CNc1nc2c(F)c(F)cc(/C(=N/O)Nc3ccc(F)c(Cl)c3)c2[nH]1 [Example 301, 2-((7-(N-(3-chloro-4-fluorophenyl)-N′-hydroxycarbamimidoyl)-4,5-difluoro-1H-benzo[d]imidazol-2-yl)amino)-N,N-dimethylacetamide]"
–,0.325,"CN1CC[C@H](Nc2nc3c(F)c(F)cc(/C(=N/O)Nc4ccc(F)c(Cl)c4)c3[nH]2)C1 [Example 447, (S)—N-(3-chloro-4-fluorophenyl)-4,5-difluoro-N′-hydroxy-2-((1-methylpyrrolidin-3-yl)amino)-1H-benzo[d]imidazole-7-carboximidamide]"
0.346,–,"O/N=C(\Nc1ccc(F)c(Cl)c1)c1cc(F)c(F)c2nc(NCCN3CCOCC3)[nH]c12 [Example 23, N-(3-Chloro-4-fluorophenyl)-4,5-difluoro-N′-hydroxy-2-((2-morpholinoethyl)amino)-1H-benzo[d]imidazole-7-carboximidamide]"
0.607,–,"CNc1nc2c(F)c(F)cc(/C(=N/O)Nc3ccc(F)c(Cl)c3)c2[nH]1 [Example 38, N-(3-Chloro-4-fluorophenyl)-4,5-difluoro-N′-hydroxy-2-(methylamino)-1H-benzo[d]imidazole-7-carboximidamide]"
–,0.389,"CN1CCCC(Nc2nc3c(F)c(F)cc(/C(=N/O)Nc4ccc(F)c(Cl)c4)c3[nH]2)C1 (stereo not shown) [Example 443, N-(3-chloro-4-fluorophenyl)-4,5-difluoro-N′-hydroxy-2-((1-methylpiperidin-3-yl)amino)-1H-benzo[d]imidazole-7-carboximidamide]"
–,1.12,"CN(C)CC(O)CNc1nc2c(F)c(F)cc(/C(=N/O)Nc3ccc(F)c(Cl)c3)c2[nH]1 (stereo not shown) [Example 448, N-(3-chloro-4-fluorophenyl)-2-((3-(dimethylamino)-2-hydroxypropyl)amino)-4,5-difluoro-N′-hydroxy-1H-benzo[d]imidazole-7-carboximidamide]"
–,4.41,"COC(=O)NCCNc1nc2c(F)c(F)cc(/C(=N/O)Nc3ccc(F)c(Cl)c3)c2[nH]1 [Example 337, Methyl (2-((7-(N-(3-chloro-4-fluorophenyl)-N′-hydroxycarbamimidoyl)-4,5-difluoro-1H-benzo[d]imidazol-2-yl)amino)ethyl)carbamate]"
–,1.02,"CN(CCNc1nc2c(F)c(F)cc(/C(=N/O)Nc3ccc(F)c(Cl)c3)c2[nH]1)Cc1ccccc1 [Example 390, 2-((2-(benzyl(methyl)amino)ethyl)amino)-N-(3-chloro-4-fluorophenyl)-4,5-difluoro-N′-hydroxy-W-benzo[d]imidazole-7-carboximidamide]"
0.798,–,"O/N=C(\Nc1ccc(F)c(Cl)c1)c1ccnc2nc(NC3CCC3)[nH]c12 [Example 164, N-(3-Chloro-4-fluorophenyl)-2-(cyclobutylamino)-N′-hydroxy-1H-imidazo[4,5-b]pyridine-7-carboximidamide]"
3.74,–,"O/N=C(\Nc1ccc(F)c(Cl)c1)c1ccnc2nc(NCCC3CCOCC3)[nH]c12 [Example 224, N-(3-chloro-4-fluorophenyl)-N′-hydroxy-2-((2-(tetrahydro-2H-pyran-4-yl)ethyl)amino)-1H-imidazo[4,5-b]pyridine-7-carboximidamide]"
–,3.84,"ON=C(Nc1ccc(F)c(Cl)c1)c1cc(F)c(F)c2nc(NCc3ncc[nH]3)[nH]c12 [Example 345, 2-(((1H-imidazol-2-yl)methyl)amino)-N-(3-chloro-4-fluorophenyl)-4,5-difluoro-N′-hydroxy-1H-benzo[d]imidazole-7-carboximidamide]"
1.37,–,"NC1(CNc2nc3nccc(/C(=N/O)Nc4ccc(F)c(Cl)c4)c3[nH]2)CC1 [Example 241, 2-(((1-aminocyclopropyl)methyl)amino)-N-(3-chloro-4-fluorophenyl)-N′-hydroxy-1H-imidazo[4,5-b]pyridine-7-carboximidamide]"
> 10,–,"O=S1(=O)CCN(CCNc2nc3nccc(/C(=N/O)Nc4ccc(F)c(Cl)c4)c3[nH]2)CC1 [Example 218, N-(3-chloro-4-fluorophenyl)-2-((2-(1,1-dioxidothiomorpholino)ethyl)amino)-N′-hydroxy-1H-imidazo[4,5-b]pyridine-7-carboximidamide]"
–,0.247,"COCCN1CCC(Nc2nc3c(F)c(F)cc(/C(=N/O)Nc4ccc(F)c(Cl)c4)c3[nH]2)C1 (stereo not shown) [Example 454, N-(3-chloro-4-fluorophenyl)-4,5-difluoro-N′-hydroxy-2-((1-(2-methoxyethyl)pyrrolidin-3-yl)amino)-1H-benzo[d]imidazole-7-carboximidamide]"
9.76,–,"CC(=O)NCc1nc2nccc(/C(=N/O)Nc3ccc(F)c(Cl)c3)c2[nH]1 [Example 145, N-((7-(N-(3-Chloro-4-fluorophenyl)-N′-hydroxycarbamimidoyl)-1H-imidazo[4,5-b]pyridin-2-yl)methyl)acetamide]"

EC50 [1] [µM],EC50 [2] [µM],Structure (SMILES)
8.24,–,"OCCCNCc1nc2nccc(/C(=N/O)Nc3ccc(F)c(Cl)c3)c2[nH]1 [Example 138, N-(3-Chloro-4-fluorophenyl)-N′-hydroxy-2-(((3-hydroxypropyl)amino)methyl)-1H-imidazo[4,5-b]pyridine-7-carboximidamide]"
–,2.4,"O=S1(=O)CCN(CCNc2nc3c(F)c(F)cc(/C(=N/O)Nc4ccc(F)c(Cl)c4)c3[nH]2)CC1 [Example 374, N-(3-chloro-4-fluorophenyl)-2-((2-(1,1-dioxidothiomorpholino)ethyl)amino)-4,5-difluoro-N′-hydroxy-1H-benzo[d]imidazole-7-carboximidamide]"
6.74,–,"O/N=C(\Nc1ccc(F)c(Cl)c1)c1ccc(F)c2nc(NCCN3CCOCC3)[nH]c12 [Example 34, N-(3-Chloro-4-fluorophenyl)-4-fluoro-N′-hydroxy-2-((2-morpholinoethyl)amino)-1H-benzo[d]imidazole-7-carboximidamide]"
–,0.79,"CN(CCc1nc2nccc(/C(=N/O)Nc3ccc(F)c(Cl)c3)c2[nH]1)Cc1ccccc1 [Example 396, 2-(2-(benzyl(methyl)amino)ethyl)-N-(3-chloro-4-fluorophenyl)-N′-hydroxy-1H-imidazo[4,5-b]pyridine-7-carboximidamide]"
4.77,–,"O=S(=O)(CCNc1nc2nccc(/C(=N/O)Nc3ccc(F)c(Cl)c3)c2[nH]1)N1CCOCC1 [Example 236, N-(3-chloro-4-fluorophenyl)-N′-hydroxy-2-((2-(morpholinosulfonyl)ethyl)amino)-1H-imidazo[4,5-b]pyridine-7-carboximidamide]"
2.15,–,"O/N=C(\Nc1ccc(F)c(Cl)c1)c1ccnc2nc(CNC3CC3)[nH]c12 [Example 119, N-(3-Chloro-4-fluorophenyl)-2-((cyclopropylamino)methyl)-N′-hydroxy-1H-imidazo[4,5-b]pyridine-7-carboximidamide]"
1.84,–,"CN(C)Cc1nc2nccc(/C(=N/O)Nc3ccc(F)c(Cl)c3)c2[nH]1 [Example 113, N-(3-Chloro-4-fluorophenyl)-2-((dimethylamino)methyl)-N′-hydroxy-1H-imidazo[4,5-b]pyridine-7-carboximidamide]"
0.89,–,"O/N=C(\Nc1ccc2ccoc2c1)c1ccnc2nc[nH]c12 [Example 68, N-(Benzofuran-6-yl)-N′-hydroxy-1H-imidazo[4,5-b]pyridine-7-carboximidamide]"
–,2.93,"CN(C)CCCCNc1nc2c(F)c(F)cc(/C(=N/O)Nc3ccc(F)c(Cl)c3)c2[nH]1 [Example 303, N-(3-chloro-4-fluorophenyl)-2-((4-(dimethylamino)butyl)amino)-4,5-difluoro-N′-hydroxy-1H-benzo[d]imidazole-7-carboximidamide]"
0.927,–,"CCNCc1nc2nccc(/C(=N/O)Nc3ccc(F)c(Cl)c3)c2[nH]1 [Example 114, N-(3-Chloro-4-fluorophenyl)-2-((ethylamino)methyl)-N′-hydroxy-1H-imidazo[4,5-b]pyridine-7-carboximidamide]"
7.35,–,"CC(C)(CO)CNCc1nc2nccc(/C(=N/O)Nc3ccc(F)c(Cl)c3)c2[nH]1 [Example 143, N-(3-Chloro-4-fluorophenyl)-N′-hydroxy-2-(((3-hydroxy-2,2-dimethylpropyl)amino)methyl)-1H-imidazo[4,5-b]pyridine-7-carboximidamide]"
–,0.18,"CN(C)CCNc1nc2c(F)c(F)cc(/C(=N/O)Nc3cccc(Br)c3)c2[nH]1 [Example 430, N-(3-bromophenyl)-2-((2-(dimethylamino)ethyl)amino)-4,5-difluoro-N′-hydroxy-1H-benzo[d]imidazole-7-carboximidamide]"
–,1.79,"CN(CCc1nc2nccc(/C(=N/O)Nc3ccc(F)c(Cl)c3)c2[nH]1)C1CCCCC1 [Example 393, N-(3-chloro-4-fluorophenyl)-2-(2-(cyclohexyl(methyl)amino)ethyl)-N′-hydroxy-1H-imidazo[4,5-b]pyridine-7-carboximidamide]"
2.08,–,"O/N=C(\Nc1ccc(F)c(Cl)c1)c1ccnc2nc(CNCCc3ccccn3)[nH]c12 [Example 125, N-(3-Chloro-4-fluorophenyl)-N′-hydroxy-2-(((2-(pyridin-2-yl)ethyl)amino)methyl)-1H-imidazo[4,5-b]pyridine-7-carboximidamide]"
–,0.692,"CN(C)CCCNc1nc2c(F)c(F)cc(/C(=N/O)Nc3ccc(F)c(Br)c3)c2[nH]1 [Example 387, N-(3-bromo-4-fluorophenyl)-2-((3-(dimethylamino)propyl)amino)-4,5-difluoro-N′-hydroxy-1H-benzo[d]imidazole-7-carboximidamide]"
